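Following 48 hours of exposure in 96-well plates, responses at five concentrations were used to interpolate endpoints linearly. GI50 is the concentration that inhibits growth by half. TGI denotes the concentration required for complete inhibition of growth.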
Tests used:
Assay in all cases: NCI-60 cell line screen, 48 h
[1] = tested on: SF-539 CNS
[2] = tested on: SK-MEL-28 melanoma
[3] = tested on: CAKI-1 renal
[4] = tested on: COLO 205 colon
[5] = tested on: ACHN renal
[6] = tested on: LOX IMVI melanoma
[7] = tested on: HL-60(TB) leukemia
[8] = tested on: HCT-15 colon
[9] = tested on: SK-MEL-5 melanoma
[10] = tested on: HS 578T breast

SMILES | GI50 [1] [µM] | TGI [1] [µM] | GI50 [2] [µM] | TGI [2] [µM] | GI50 [3] [µM] | TGI [3] [µM] | GI50 [4] [µM] | TGI [4] [µM] | GI50 [5] [µM] | TGI [5] [µM] | GI50 [6] [µM] | TGI [6] [µM] | GI50 [7] [µM] | TGI [7] [µM] | GI50 [8] [µM] | TGI [8] [µM] | GI50 [9] [µM] | TGI [9] [µM] | GI50 [10] [µM] | TGI [10] [µM]
O=c1oc2ccc(-c3ccc(F)cc3F)cc2c(=O)n1-c1cccc(C(F)(F)F)c1 | 1.41 | 6.95 | 0.756 | 6.56 | 1.22 | 5.19 | 10.4 | 24.7 | 2.25 | 8.37 | 1.61 | 5.55 | 1.33 | 3.89 | 1.61 | 23.4 | 0.44 | 1.71 | 1.3 | 7.28
COc1ccc(C(=O)Nc2ccc(O)c(=O)cc2)cc1 |  | 81.1 |  | 56.4 |  | > 100 |  | 57 |  | 59.8 |  | > 100 |  | 54.6 |  | 89.5 |  | > 100 |  | > 100
COc1cc(Cl)cc(-c2nn(-c3cccc(NC(=O)c4ccc(N5CCOCC5)c(C(F)(F)F)c4)c3)cc2-c2ccncc2)c1 | 3.74 | > 100 | 14.8 | > 100 | 4.4 | > 100 | 22.2 | > 100 | 7.31 | > 100 | 15.8 | > 100 | 4.19 | 33.2 | 3.25 | > 100 | 16.5 | > 100 | 6.48 | > 100
CC1CC2CCCC(O)=C2C(=O)O1 (stereo not drawn) |  | > 100 |  | > 100 |  | > 100 |  | > 100 |  | > 100 |  | > 100 |  | > 100 |  | > 100 |  | > 100 |  | > 100
Cc1nnc(Nc2ccc(NC(=O)Nc3ccc(Cl)cc3)cc2)c2ccccc12 | 1.61 | 3.32 | 1.63 | 3.2 | 3.49 | 12.8 | 2.22 | 5.29 | 1.84 | 3.69 | 1.75 | 3.27 | 2.03 | 4.19 | 1.91 | 4.53 | 1.85 | 3.5 | 2.52 | 6.4
CCOC(=O)N[C@H]1CCc2cc(OC)c(OC)c(OC)c2-c2ccc(SC)c(=O)cc21 |  | < 0.01 | > 55.6 | > 100 | < 0.0182 |  |  |  |  | > 100 |  | > 100 |  | < 0.01 |  | > 100 |  |  |  | > 100
COc1cc(C(=O)N2CCN(C(=O)c3cc(OC)c(OC)c(OC)c3)C2=S)cc(OC)c1OC | 14.5 | 30.2 | 17.2 | 35.5 | 12.3 | 24.7 | 19.4 | 40.4 | 17.8 | 34.5 | 15.4 | 30.7 | 16 | 34.3 | 20.2 | 47.4 |  |  | 24.7 | > 100
CN1C(=O)c2ccccc2NC(=O)C12O[C@@H]2c1ccccc1 (stereo partly drawn) |  | > 100 |  | > 100 |  | > 100 |  | > 100 |  | > 100 |  | > 100 |  | > 100 |  |  |  | > 100 |  | > 100
COc1ccc(-c2nnc3n(C)c(=O)c4ccccc4n23)cc1N | 1.63 | 8.82 |  |  | 1.95 | > 100 | 0.0469 | 4.44 | 17.3 | > 100 | 3.01 | > 100 |  |  | 0.0498 | > 100 | 0.0598 | > 100 | 4.43 | > 100
Cc1nc(Nc2cccnc2)sc1C(=O)/C=C/c1ccc(F)cc1 | 2.46 | 7.26 | 3.72 | 21.4 | 3.39 | 13.6 | 2.81 | 8.86 |  |  | 2.36 | 6.52 |  |  | 2.14 | 10.2 | 3.64 | 13.4 | 4.05 | > 100
COC(=O)c1c2c(c(C)[n+]([O-])c1C)C(=O)C=C(NCc1ccc(F)cc1)C2=O | 0.641 | 1.87 | 1.1 | 3.37 | 0.527 | 2.76 | 0.301 | 0.97 |  |  | 0.224 | 2.09 | 0.454 | 1.92 | 0.341 | 1.86 | 0.193 | 0.405 | 1.93 | 6.66
COc1cnc2c(c1)C(=O)c1c-2n(CCCNC2=NCCS2)c(=O)c2cc([N+](=O)[O-])ccc12 | 0.0359 | 1.05 |  |  | < 0.01 | 1.47 |  |  | < 0.01 | 1.15 |  |  |  |  | 1.17 | 2.66 | 0.0284 | 0.157 | 1.82 | 4.54

Reference: PubChem BioAssay (NCI)
